The record followed here is patent US10548319B2, “Compositions and methods for synthetic amphiphile-induced changes in plant root morphology” (The Curators of the University of Missouri, priority 2014, dated 2020).

This assay relates to A. thaliana (Col-0) plant. Format: in vivo, Arabidopsis thaliana. Conditions: for Lateral root density with increasing concentration: 0 μM to 50 μM, FIG. 7; for Change in root morphology: lariat ether 20 μM; for Decrease in primary root length: vs PNS. From the text:
The effect treating a plant with a composition comprising a synthetic amphiphile on root morphology or other physical characteristics or attributes can be quantitated. For example, a change in primary root length can be determined by measuring the difference, if any, in primary root length of a plant treated with the composition compared to the average of a control sample of plants of the same type grown under identical conditions in the absence of the composition. A change in lateral root density can be determined by comparing the lateral root density of a plant treated with the composition to the average lateral root density of a sample grown under identical conditions in the absence of the composition. Lateral root density can be determined by dividing the number of lateral roots by the length of the primary root. In certain embodiments for any quantitated characteristic or attribute, the average value of the control is the average of a statistically significant population of control plants. For example, in certain illustrative embodiments disclosed herein, three trials of about 20 plants each were used to determine the average of the control.
Illustrative of certain embodiments, approximately 60 plants were grown on PNS media (no additives) and root lengths and the number of lateral roots were recorded for each. The data points were averaged to obtain the following baseline values: primary root length=40.4±3.8 mm and number of lateral roots=6.1±0.8, respectively. The lateral root density was obtained by dividing the number of lateral roots by the length (in mm) of the primary root. The control value was (6.1/[…]=) 0.15.
Test compounds were added to the growth medium as 0.2% by volume DMSO. […]
To make 500 mL PN media, 485 mL doubly distilled (“dd”) H2O was first added to an autoclave beaker. The following salts and nutrients were added to a beaker and mixed well: 5 mL of 250 mM of KPO4 (pH 5.5), 2.5 mL of 1M KNO3, 1 mL of 1M MgSO4, 1 mL of 1M Ca(NO3)2, 0.5 mL of Ferric EDTA (1000× or 49 mM) and 0.5 mL of Micronutrients (1000×). In a 1 L autoclaved bottle, 0.6% (3 g) of bacteriological agar was added, followed by 500 mL solution prepared above. The media was autoclaved using the Liquid-30 program.
PNS plates were used for plating sterile Arabidopsis thaliana (Columbia-0) seeds. A sterile stock of PNS agar was maintained. Sterile sucrose was added to PN media to make PNS media. To make PNS media containing 0.5% sucrose, 5 mL of 50% sucrose (sterile filtered) was added to 500 mL of PN agar and mixed well.
The stored PNS media was liquefied using a water bath and allowed to cool to 55° C. The type of plates, compounds, and concentrations to be used were confirmed while the media cooled. The plates were labeled on the cover and the bottom with all the relevant information. 50 mL sterile centrifuge tubes were used to measure 29,940 μL (29.94 mL) PNS media. A fresh sterile 50 mL tube was used for each plate. The desired amount and concentration of compound was added to the PNS media, mixed by inverting the tube and poured in the plate. Total volume of media and compound in each plate was kept constant at 30 mL. A maximum of 60 μL (0.2% by volume) compound was added per plate. For example: 60 μL of 25 mM compound was added to 29.94 mL PNS media to get final concentration of 50 μM compound in PNS media. Plates were incubated at room temperature for 2 hours before plating seeds on them.
Hands and bench area were washed thoroughly before beginning. Sterilizing solution was prepared in a sterile 15 mL centrifuge tube, by mixing 5 mL of 30% bleach and 5 μL of 10% Triton X-100. A. thaliana Col-0 seeds were added to sterile 1.5 mL micro-centrifuge tube. 500 μL of sterilizing solution (30% bleach+0.01% Triton X-100) was added to the seeds, vortexed for 3 seconds and incubated at room temperature for 8 minutes. After 8 minutes, bleach was removed and 1 mL autoclaved MilliQ water was added. […]

Where [1] appears, read: 100 nM in PNS, positive control.
The mark [2] stands for this setting: Table 2, 50 μM in PNS, no unit in table (method: millimeters).
Where [3] appears, read: Table 2, 20 μM in PNS, no unit in table (method: millimeters).

Structures are written as SMILES. “And” between values parts separate entries of the source, which are not always exact repeats. Equal values may be shown once. Read-outs that look alike come from different tables or passages of the source.

Consider `O=C(O)COc1ccc(Cl)cc1Cl` [2,4-D, 2,4-Dichlorophenoxyacetic acid, reference compound], for which, under setting [1], the Lateral root density is 0.85 and 0.85 ± 0.12; the “Number of lateral roots” value is 3.4±0.6; the Primary root length was determined as 3.9±0.6 mm.
Regarding `CCCCCC(=O)N1CCOCCOCCN(C(=O)CCCCC)CCOCCOCC1` [C6 lariat ether amide], under “Table 2, 50 μM”, the Lateral root density came out at 0.15, the Number lateral roots amounted to 5.6 and the “Percent decrease 1° root” value is 4.9%. Also, under setting [2], the Primary root length was 38.6 mm.
Take `CCCCCCN1CCOCCOCCN(CCCCCC)CCOCCOCC1` [C6 lariat ether]: where the note is “Table 2, 20 μM”, the Lateral root density is on record as 0.18, the Number lateral roots was found to be 6.6 and the “Percent decrease 1° root” value is 5.9%. This compound also returned a Primary root length under setting [3] of 38.3 mm. In addition, for the setting “Table 2, 50 μM”, the Lateral root density is listed as 0.14, the Number lateral roots came out at 4.6 and the “Percent decrease 1° root” value is recorded as 18.8%. Also, under setting [2], the Primary root length was found to be 33 mm.
On to `CCCCCCC(=O)N1CCOCCOCCN(C(=O)CCCCCC)CCOCCOCC1` [C7 lariat ether amide], for which, where the note is “Table 2, 20 μM”, the Lateral root density was found to be 0.21, the Number lateral roots came out at 4.5 and the “Percent decrease 1° root” value came to 45.3%. Under setting [3], this compound displayed a Primary root length of 22.9 mm. Under “Table 2, 50 μM”, the Lateral root density is 0.65, the Number lateral roots was determined as 4.2 and the “Percent decrease 1° root” value is on record as 82.5%. The compound also yielded a Primary root length under setting [2] of 7.3 mm.
On to `CCCCCCCC(=O)N1CCOCCOCCN(C(=O)CCCCCCC)CCOCCOCC1` [C8 lariat ether amide, N,N′-Dioctanoyl-4,13-diaza-18-crown-6], for which, under “Table 2, 50 μM”, the Lateral root density is 0.17, the Number lateral roots came to 5.2 and the “Percent decrease 1° root” value was determined as 23.2%. Under setting [2], this compound had a Primary root length of 31.2 mm.
For the compound `CCCCCCCCN1CCOCCOCCN(CCCCCCCC)CCOCCOCC1` [C8 lariat ether, N,N′-Di-n-octyl-4,13-diaza-18-crown-6], the “Lateral root density with increasing concentration” value was “Linear increase in lateral root density” and the “Change in root morphology” value is recorded as “significant change in root morphology”. In addition, for the setting “Table 2, 20 μM”, the Lateral root density came out at 0.64, the Number lateral roots is 5.1 and the “Percent decrease 1° root” value is 83.4%. Under setting [3], this compound had a Primary root length of 6.8 mm. For the setting “Table 2, 50 μM”, the Lateral root density was determined as 1.38, the Number lateral roots is 2.2 and the “Percent decrease 1° root” value is 96.1%. Besides, the Primary root length under setting [2] stood at 1.6 mm.
Regarding `CCCCCCCCC(=O)N1CCOCCOCCN(C(=O)CCCCCCCC)CCOCCOCC1` [C9 lariat ether amide], the Lateral root density reads like this: (Table 2, 20 μM) 0.19; (Table 2, 50 μM) 0.13. The Number lateral roots reads like this: (Table 2, 20 μM) 1.6; (Table 2, 50 μM) 2. For the same compound, the “Percent decrease 1° root” value is given as 78.2% (Table 2, 20 μM) and 62.6% (Table 2, 50 μM). The Primary root length runs as follows: under setting [3], 9.2 mm; under setting [2], 15.7 mm.
Regarding `CCCCCCCCCC(=O)N1CCOCCOCCN(C(=O)CCCCCCCCC)CCOCCOCC1` [C10 lariat ether amide, N,N′-Didecanoyl-4,13-diaza-18-crown-6], where the note is “Table 2, 50 μM”, the Lateral root density is recorded as 0.19, the Number lateral roots was 0.6 and the “Percent decrease 1° root” value was determined as 92.4%. Also, the Primary root length under setting [2] came out at 3.1 mm.
For the compound `CCCCCCCCCCN1CCOCCOCCN(CCCCCCCCCC)CCOCCOCC1` [C10 lariat ether, N,N′-Didecyl-4,13-diaza-18-crown-6], the “Lateral root density with increasing concentration” value is “Linear increase in lateral root density” and the “Change in root morphology” value was “significant change in root morphology”. Further, where the note is “Table 2, 20 μM”, the Lateral root density came to 1.14, the Number lateral roots turned out to be 4 and the “Percent decrease 1° root” value came to 91.4%. Further, the Primary root length under setting [3] was 3.5 mm. Also, for the setting “Table 2, 50 μM”, the Lateral root density was found to be 1.75, the Number lateral roots is 3.5 and the “Percent decrease 1° root” value stood at 95.1%. Under setting [2], this compound returned a Primary root length of 2 mm.
On to `CCCCCCCCCCCC(=O)N1CCOCCOCCN(C(=O)CCCCCCCCCCC)CCOCCOCC1` [C12 lariat ether amide], for which, where the note is “Table 2, 50 μM”, the Lateral root density came out at 0.18, the Number lateral roots is given as 7 and the “Percent decrease 1° root” value is 1.73%. The Primary root length under setting [2] amounted to 39.9 mm.
`CCCCCCCCCCCCN1CCOCCOCCN(CCCCCCCCCCCC)CCOCCOCC1` [C12 lariat ether] returned a Lateral root density (Table 2, 20 μM) of 0.17 and a Lateral root density (Table 2, 50 μM) of 0.15. Besides, the Number lateral roots was 6 (Table 2, 20 μM) and 4.9 (Table 2, 50 μM). The “Percent decrease 1° root” value is, setting by setting: (Table 2, 20 μM) 1.3%; (Table 2, 50 μM) 11.5%. Moreover, the Primary root length is, setting by setting: under setting [3], 40.1 mm; under setting [2], 35.9 mm.
For `CCCCCCCCCCCCC(=O)N1CCOCCOCCN(C(=O)CCCCCCCCCCCC)CCOCCOCC1` [C13 lariat ether amide], the Lateral root density is, setting by setting: (Table 2, 20 μM) 0.14; (Table 2, 50 μM) 0.14. The Number lateral roots amounted to 5.1 (Table 2, 20 μM) and 4.2 (Table 2, 50 μM). Moreover, the “Percent decrease 1° root” value by setting is: (Table 2, 20 μM) 11.8%; (Table 2, 50 μM) 14.9%. Besides, the Primary root length reads like this: under setting [3], 36.9 mm; under setting [2], 35.6 mm.
On to `c1ccc(CN2CCOCCOCCN(CCCCCCCCCCCCCCN3CCOCCOCCN(CCCCCCCCCCCCCCN4CCOCCOCCN(Cc5ccccc5)CCOCCOCC4)CCOCCOCC3)CCOCCOCC2)cc1` [C14 hydraphile (2)], for which, where the note is “hydraphile 20 μM”, the “Number of lateral roots” value was 6.2±0.3. Further, the Primary root length was found to be 14 ± 2 mm (hydraphile 20 μM in PNS media); 14±2 mm (hydraphile 20 μM in PNS media, listed as compound 2); 0.7 ± 0.2 mm (hydraphile 50 μM in PNS media); 0.7±0.2 mm (hydraphile 50 μM in PNS media, listed as compound 2). The “Decrease in primary root length” value (hydraphile 20 μM) was found to be 63% and the “Decrease in primary root length” value (hydraphile 50 μM) was found to be 98%. For the same compound, the “Increase in lateral root density” value (hydraphile 20 μM, vs control) amounted to 4 fold. This compound displayed a Lateral root density (hydraphile 20 μM, lateral roots divided by primary root length) of 0.48±0.08.
Regarding `CCCCCCCCCCCCCC(=O)N1CCOCCOCCN(C(=O)CCCCCCCCCCCCC)CCOCCOCC1` [C14 lariat ether amide], under “Table 2, 50 μM”, the Lateral root density was 0.21, the Number lateral roots stood at 8.6 and the “Percent decrease 1° root” value stood at 0%. Under setting [2], this compound registered a Primary root length of 41.9 mm.
Regarding `CCCCCCCCCCCCCCN1CCOCCOCCN(CCCCCCCCCCCCCC)CCOCCOCC1` [C14 lariat ether], where the note is “Table 2, 20 μM”, the Lateral root density was found to be 0.17, the Number lateral roots stood at 6.9 and the “Percent decrease 1° root” value is on record as 0%. Besides, the Primary root length under setting [3] was 41.5 mm. Moreover, under “Table 2, 50 μM”, the Lateral root density was 0.21, the Number lateral roots was determined as 4.9 and the “Percent decrease 1° root” value is recorded as 48.4%. For the same compound, the Primary root length under setting [2] came to 20.9 mm.
